{
  "source": "patent US12291502B2",
  "about": "“Topoisomerase II-alpha inhibitors and methods of treating cancer using the same” (The Regents of the University of Colorado, priority 2019, dated 2025)",
  "assay": "LCMS quantitation of compound in harvested tumors",
  "type": "in vivo, athymic nude mouse",
  "details": "i.p. 50 mg/kg, 5× per week over 28 days",
  "procedure": "Mass spectrometry analysis and Sample preparation. Tumor tissue was isolated, flash frozen in liquid nitrogen, and stored at −80° C. until analysis. Prior to LC-MS analysis, samples were milled in liquid nitrogen and weighed. Tissue was then placed in tubes containing ˜50-75 μL of glass beads (NextAdvance SKU GB10), resuspended to 15 mg/ml in methanol:acetonitrile:water (5:3:2, v:v:v) and processed using a Bullet Blender® (Next Advance, Troy, NY, USA) for 5 minutes at level 4 at 4° C. Suspensions were then vortexed continuously for 30 min at 4° C. Insoluble material was removed by centrifugation at 10,000 g for 10 min at 4° C. and supernatants were isolated for metabolomics analysis by UHPLC-MS. Standard curves were prepared by serial dilution of the purified AA-29-141 compound into a pool of vehicle-treated tumor extract.\nUHPLC-MS analysis for quantification of 42 in tumor tissue. Analyses were performed as previously published. Briefly, the analytical platform employs a Vanquish UHPLC system (Thermo Fisher Scientific, San Jose, CA, USA) coupled online to a Q Exactive mass spectrometer (Thermo Fisher Scientific, San Jose, CA, USA). […]",
  "data": [
    {"compound": "O=C(CCN1CCOCC1)Nc1ccc2c(-c3cc(F)ccc3O)ccnc2c1O", "note": "[Analog 42]", "values": [
      {"measurement": "quantity of compound in tumors (LCMS/HRMS)", "result": "significant HRMS quantity"}
    ]}
  ]
}
